Experimental data published in ChEMBL document CHEMBL3232708, “Discovery of a tetracyclic quinoxaline derivative as a potent and orally active multifunctional drug candidate for the treatment of neuropsychiatric and neurological disorders” (J Med Chem, 2014).
Calls of active or inactive are those of the source. The rule behind the calls is not given here.

Tests used:
[1] = biological target: T1, 5-hydroxytryptamine receptor 2C (Homo sapiens, UniProt P28335); assay: biochemical
T1 sequence (P28335 whole entry): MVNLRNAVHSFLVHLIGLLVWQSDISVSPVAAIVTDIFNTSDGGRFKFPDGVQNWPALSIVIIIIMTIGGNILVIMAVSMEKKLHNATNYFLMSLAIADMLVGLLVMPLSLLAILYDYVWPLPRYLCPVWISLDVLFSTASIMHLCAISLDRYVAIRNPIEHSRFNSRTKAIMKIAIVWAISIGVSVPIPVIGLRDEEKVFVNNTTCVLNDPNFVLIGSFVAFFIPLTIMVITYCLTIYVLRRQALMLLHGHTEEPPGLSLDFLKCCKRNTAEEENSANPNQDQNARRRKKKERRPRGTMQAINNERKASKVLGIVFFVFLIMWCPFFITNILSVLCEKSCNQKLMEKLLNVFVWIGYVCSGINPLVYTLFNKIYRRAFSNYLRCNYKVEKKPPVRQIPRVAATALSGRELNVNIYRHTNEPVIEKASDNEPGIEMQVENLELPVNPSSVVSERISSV
Description: Displacement of [125]DOI from human recombinant full length 5HT2C receptor expressed in HEK293E cells

[2] = biological target: Sodium-dependent serotonin transporter (Homo sapiens, UniProt P31645); assay: Displacement of [3H]-N-methyl-citalopram from SERT in human platelets at 100 nM after 60 mins by liquid scintillation counting analysis
Sequence of Sodium-dependent serotonin transporter (P31645 whole entry, looked up): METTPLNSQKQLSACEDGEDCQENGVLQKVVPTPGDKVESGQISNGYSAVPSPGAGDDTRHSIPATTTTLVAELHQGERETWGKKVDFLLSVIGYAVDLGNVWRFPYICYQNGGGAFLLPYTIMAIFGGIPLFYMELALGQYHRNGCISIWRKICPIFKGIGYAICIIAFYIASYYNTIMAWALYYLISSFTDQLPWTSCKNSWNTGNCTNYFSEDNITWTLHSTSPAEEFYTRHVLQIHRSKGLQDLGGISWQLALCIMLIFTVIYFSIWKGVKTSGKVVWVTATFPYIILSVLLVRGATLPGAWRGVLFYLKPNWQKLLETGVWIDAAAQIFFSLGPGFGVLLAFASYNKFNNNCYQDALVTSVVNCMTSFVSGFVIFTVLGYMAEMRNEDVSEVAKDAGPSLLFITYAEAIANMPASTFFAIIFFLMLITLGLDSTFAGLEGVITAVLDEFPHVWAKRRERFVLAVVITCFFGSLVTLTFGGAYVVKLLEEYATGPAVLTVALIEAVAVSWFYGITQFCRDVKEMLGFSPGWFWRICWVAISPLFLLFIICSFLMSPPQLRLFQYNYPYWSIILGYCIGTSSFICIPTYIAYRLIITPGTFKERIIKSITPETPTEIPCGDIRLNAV

D(2) dopamine receptor = D(2) dopamine receptor (Rattus norvegicus, UniProt P61169); assay: biochemical
Sequence of D(2) dopamine receptor (P61169 whole entry): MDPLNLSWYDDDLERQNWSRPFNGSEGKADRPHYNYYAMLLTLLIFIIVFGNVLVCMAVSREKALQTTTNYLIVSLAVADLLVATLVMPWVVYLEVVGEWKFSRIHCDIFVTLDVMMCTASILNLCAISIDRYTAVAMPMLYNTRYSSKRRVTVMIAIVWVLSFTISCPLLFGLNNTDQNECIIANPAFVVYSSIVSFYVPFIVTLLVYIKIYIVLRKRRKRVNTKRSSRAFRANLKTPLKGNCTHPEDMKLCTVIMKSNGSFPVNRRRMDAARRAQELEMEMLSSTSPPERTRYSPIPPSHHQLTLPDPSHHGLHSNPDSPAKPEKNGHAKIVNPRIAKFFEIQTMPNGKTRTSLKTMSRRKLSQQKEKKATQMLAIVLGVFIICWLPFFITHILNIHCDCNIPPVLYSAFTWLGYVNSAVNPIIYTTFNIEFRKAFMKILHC
Description: Displacement of [3H]-N-methylspiperone from rat recombinant dopamine D2 short receptor expressed in CHO cells

[3] = biological target: 5-hydroxytryptamine receptor 2A (Homo sapiens, UniProt P28223); assay: biochemical; format: cell-based, HEK293E
Sequence of 5-hydroxytryptamine receptor 2A (P28223 whole entry): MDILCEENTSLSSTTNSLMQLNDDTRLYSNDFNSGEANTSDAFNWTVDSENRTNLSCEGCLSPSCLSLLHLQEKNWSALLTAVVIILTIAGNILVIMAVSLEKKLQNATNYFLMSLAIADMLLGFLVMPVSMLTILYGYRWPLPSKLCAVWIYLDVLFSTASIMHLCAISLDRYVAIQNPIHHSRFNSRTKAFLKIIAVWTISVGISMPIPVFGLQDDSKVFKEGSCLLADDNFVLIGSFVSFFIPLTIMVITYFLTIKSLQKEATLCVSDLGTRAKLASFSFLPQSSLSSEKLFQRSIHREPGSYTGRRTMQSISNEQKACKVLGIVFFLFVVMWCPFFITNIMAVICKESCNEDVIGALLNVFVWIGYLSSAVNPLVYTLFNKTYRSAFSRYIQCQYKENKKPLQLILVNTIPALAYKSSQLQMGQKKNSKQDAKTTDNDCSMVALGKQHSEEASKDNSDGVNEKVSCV
Description: Displacement of [125]DOI from human recombinant full length 5HT2A receptor expressed in HEK293E cells

[4] = Plasma protein binding in human; format: ADME, cell-free; conditions: read-out: PPB (converted)
[5] = biological target: T2, Alpha-1B adrenergic receptor (Homo sapiens, UniProt P35368); assay: Inhibition of adrenergic alpha1B receptor (unknown origin)
T2 sequence (P35368 whole entry): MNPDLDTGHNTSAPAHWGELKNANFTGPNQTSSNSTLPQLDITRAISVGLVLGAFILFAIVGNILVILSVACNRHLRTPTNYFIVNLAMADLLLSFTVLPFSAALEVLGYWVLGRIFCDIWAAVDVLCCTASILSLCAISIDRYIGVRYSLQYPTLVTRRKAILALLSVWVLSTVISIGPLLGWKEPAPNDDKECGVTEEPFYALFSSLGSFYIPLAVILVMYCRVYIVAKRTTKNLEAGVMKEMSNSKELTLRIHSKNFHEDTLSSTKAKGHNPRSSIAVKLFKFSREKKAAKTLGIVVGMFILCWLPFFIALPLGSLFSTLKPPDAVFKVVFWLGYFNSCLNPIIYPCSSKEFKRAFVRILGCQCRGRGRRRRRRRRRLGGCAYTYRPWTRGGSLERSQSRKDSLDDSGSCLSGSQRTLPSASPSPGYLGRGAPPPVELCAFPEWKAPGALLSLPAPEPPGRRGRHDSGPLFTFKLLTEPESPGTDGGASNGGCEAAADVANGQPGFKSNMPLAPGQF

[6] = Lipophilicity, log D of the compound at pH 7.4; format: physicochemical; conditions: buffer
[7] = Lipophilicity, log D of the compound at pH 1.7; format: physicochemical; conditions: buffer
Homo sapiens [8] = assay: Toxicity in schizophrenia patient administered once daily; format: organism-based; conditions: in vivo
[9] = biological target: T3, 5-hydroxytryptamine receptor 1A (Homo sapiens) (UniProt P08908); assay: Inhibition of human 5HT1A receptor at 100 nM
T3 sequence (whole entry): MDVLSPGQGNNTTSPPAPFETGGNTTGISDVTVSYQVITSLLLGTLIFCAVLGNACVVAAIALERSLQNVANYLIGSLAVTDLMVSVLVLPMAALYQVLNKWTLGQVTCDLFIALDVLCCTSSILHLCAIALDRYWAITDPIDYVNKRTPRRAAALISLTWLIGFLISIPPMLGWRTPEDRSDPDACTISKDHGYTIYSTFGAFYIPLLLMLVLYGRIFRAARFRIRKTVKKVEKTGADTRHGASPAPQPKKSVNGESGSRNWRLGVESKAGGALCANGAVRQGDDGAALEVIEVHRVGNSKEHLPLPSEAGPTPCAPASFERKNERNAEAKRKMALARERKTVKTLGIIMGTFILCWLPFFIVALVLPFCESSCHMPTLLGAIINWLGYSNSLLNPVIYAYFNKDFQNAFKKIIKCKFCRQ

[10] = biological target: D(2) dopamine receptor (Homo sapiens) (UniProt P14416); assay: Agonist activity at human recombinant dopamine D2 short receptor expressed in CHO cells up to 1 uM in absence of dopamine; format: cell-based
Sequence of D(2) dopamine receptor (Homo sapiens) (P14416 whole entry): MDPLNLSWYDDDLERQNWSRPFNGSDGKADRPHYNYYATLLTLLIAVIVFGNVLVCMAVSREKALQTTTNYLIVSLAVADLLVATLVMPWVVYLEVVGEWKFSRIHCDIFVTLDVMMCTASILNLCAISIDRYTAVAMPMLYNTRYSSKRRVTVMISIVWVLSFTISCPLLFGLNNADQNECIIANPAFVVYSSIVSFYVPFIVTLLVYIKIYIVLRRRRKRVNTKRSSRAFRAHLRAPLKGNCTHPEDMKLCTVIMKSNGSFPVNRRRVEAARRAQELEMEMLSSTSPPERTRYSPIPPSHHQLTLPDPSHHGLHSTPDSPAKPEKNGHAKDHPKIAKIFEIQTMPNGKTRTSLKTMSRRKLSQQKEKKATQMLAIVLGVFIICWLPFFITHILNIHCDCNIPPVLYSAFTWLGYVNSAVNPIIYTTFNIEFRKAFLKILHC

[11] = biological target: D(1A) dopamine receptor (Homo sapiens) (UniProt P21728); assay: Inhibition of human dopamine D1 receptor at 100 nM
Sequence of D(1A) dopamine receptor (Homo sapiens) (P21728 whole entry): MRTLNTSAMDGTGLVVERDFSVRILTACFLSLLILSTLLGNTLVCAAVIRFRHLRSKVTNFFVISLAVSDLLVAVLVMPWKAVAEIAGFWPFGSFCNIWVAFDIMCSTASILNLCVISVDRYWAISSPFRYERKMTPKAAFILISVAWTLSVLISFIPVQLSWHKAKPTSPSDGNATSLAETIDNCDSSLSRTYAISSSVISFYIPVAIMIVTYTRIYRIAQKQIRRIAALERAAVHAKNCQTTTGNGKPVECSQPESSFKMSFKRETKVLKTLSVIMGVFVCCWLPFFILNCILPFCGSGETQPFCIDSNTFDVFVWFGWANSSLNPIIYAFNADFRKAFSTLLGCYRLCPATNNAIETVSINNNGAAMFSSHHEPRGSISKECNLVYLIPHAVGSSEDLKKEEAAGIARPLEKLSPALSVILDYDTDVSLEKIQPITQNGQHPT

Homo sapiens [12] = assay: Toxicity in healthy human administered once daily; format: organism-based; conditions: in vivo
[13] = biological target: T4, 5-hydroxytryptamine receptor 1A (Homo sapiens, UniProt P08908); assay: Inhibition of human 5HT1A receptor
T4 sequence (P08908 whole entry): T3 sequence (whole entry)

Histamine H1 receptor = Histamine H1 receptor (Homo sapiens, UniProt P35367)
Sequence of Histamine H1 receptor (P35367 whole entry): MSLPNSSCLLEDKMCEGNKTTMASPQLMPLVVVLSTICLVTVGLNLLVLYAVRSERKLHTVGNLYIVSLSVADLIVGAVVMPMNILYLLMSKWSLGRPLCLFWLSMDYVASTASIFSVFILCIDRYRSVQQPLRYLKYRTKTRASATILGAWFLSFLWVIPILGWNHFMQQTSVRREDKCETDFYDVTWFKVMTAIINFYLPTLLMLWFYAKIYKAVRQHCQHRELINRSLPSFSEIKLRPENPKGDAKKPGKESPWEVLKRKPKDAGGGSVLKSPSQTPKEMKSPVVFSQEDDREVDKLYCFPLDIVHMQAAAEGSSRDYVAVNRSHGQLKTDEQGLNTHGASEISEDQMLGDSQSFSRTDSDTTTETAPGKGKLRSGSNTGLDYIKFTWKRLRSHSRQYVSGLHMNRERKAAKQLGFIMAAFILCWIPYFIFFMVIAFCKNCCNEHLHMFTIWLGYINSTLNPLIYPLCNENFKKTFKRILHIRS
Description: Inhibition of histamine H1 receptor (unknown origin)

Homo sapiens [14] = species: Homo sapiens; assay: Effect on sleep maintenance insomnia patient assessed as reduction of waking after sleep onset
[15] = biological target: T5, D(4) dopamine receptor (Homo sapiens) (UniProt P21917); conditions: 100 nM
T5 sequence (whole entry): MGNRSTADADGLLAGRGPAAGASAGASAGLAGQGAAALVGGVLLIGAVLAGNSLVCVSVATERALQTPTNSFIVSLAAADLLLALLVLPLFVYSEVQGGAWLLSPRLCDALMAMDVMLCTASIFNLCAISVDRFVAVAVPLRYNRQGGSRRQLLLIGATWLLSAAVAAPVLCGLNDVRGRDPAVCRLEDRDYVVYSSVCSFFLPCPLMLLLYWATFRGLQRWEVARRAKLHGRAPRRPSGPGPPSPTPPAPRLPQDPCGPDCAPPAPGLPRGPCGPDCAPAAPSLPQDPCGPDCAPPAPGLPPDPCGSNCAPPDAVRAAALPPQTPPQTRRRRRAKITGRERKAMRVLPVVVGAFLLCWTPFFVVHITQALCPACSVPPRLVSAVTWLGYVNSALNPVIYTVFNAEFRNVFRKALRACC
Description: Inhibition of human dopamine D4 receptor at 100 nM

MDR1 [16] = assay: in vitro; conditions: dog, MDCK-MDR1
Description: Efflux ratio of permeability from basolateral to apical side over apical to basolateral side indog MDCK cells expressing MDR1

Homo sapiens [17] = species: Homo sapiens; assay: Effect on sleep maintenance insomnia patient assessed as increase in slow wave sleep
Homo sapiens [18] = species: Homo sapiens; assay: Antipsychotic activity in acute exacerbated schizophrenia patient; format: functional, organism-based
[19] = biological target: T6, Alpha-1A adrenergic receptor (Homo sapiens) (UniProt P35348); assay: Inhibition of adrenergic alpha1A receptor (unknown origin) at 100 nM
T6 sequence (whole entry): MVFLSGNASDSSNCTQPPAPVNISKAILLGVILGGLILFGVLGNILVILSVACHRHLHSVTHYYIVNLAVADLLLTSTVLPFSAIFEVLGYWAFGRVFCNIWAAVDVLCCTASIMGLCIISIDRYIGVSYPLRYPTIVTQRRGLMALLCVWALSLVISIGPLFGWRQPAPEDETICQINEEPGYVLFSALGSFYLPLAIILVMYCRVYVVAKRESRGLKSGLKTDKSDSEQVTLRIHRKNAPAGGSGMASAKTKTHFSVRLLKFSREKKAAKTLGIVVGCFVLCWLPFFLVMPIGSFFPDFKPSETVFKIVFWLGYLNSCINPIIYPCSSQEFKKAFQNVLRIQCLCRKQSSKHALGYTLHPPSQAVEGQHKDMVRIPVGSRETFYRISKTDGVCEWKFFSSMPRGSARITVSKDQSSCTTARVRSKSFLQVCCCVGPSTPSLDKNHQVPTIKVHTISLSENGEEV

Rattus norvegicus [20] = assay: Toxicity in po dosed Sprague-Dawley rat assessed as effect on escape behaviour; format: organism-based; conditions: in vivo
[21] = biological target: T7, Alpha-1B adrenergic receptor (Homo sapiens) (UniProt P35368); assay: Inhibition of adrenergic alpha1B receptor (unknown origin) at 100 nM
T7 sequence (whole entry): T2 sequence (P35368 whole entry)

D(4) dopamine receptor = biological target: T8, D(4) dopamine receptor (Homo sapiens, UniProt P21917)
T8 sequence (P21917 whole entry): T5 sequence (whole entry)
Description: Inhibition of human dopamine D4 receptor

Homo sapiens [22] = species: Homo sapiens; assay: Effect on insomnia patient assessed as restoration of sleep architecture; format: functional, organism-based
Rattus norvegicus [23] = assay: Toxicity in rat step-down latency model assessed as frank catalepsy at 30 mg/kg; format: organism-based; parameters: dose 30 mg/kg; conditions: in vivo
[24] = biological target: D(2) dopamine receptor (Homo sapiens) (UniProt P14416); assay: Antagonist activity at human recombinant dopamine D2 short receptor expressed in CHO cells assessed as inhibition of Eu-GTP binding at 10 uM; format: cell-based
[25] = Solubility of the compound in PBS buffer at pH 7.4; format: physicochemical
Rattus norvegicus [26] = assay: Inhibition of quipazine-induced head twitches in po dosed rat head twitch model administered 25 mins prior to quipazine challenge measured after 30 mins; format: functional
Rattus norvegicus [27] = assay: Inhibition of conditioned avoidance response in po dosed Sprague-Dawley rat model after 2 hrs by electric foot shock test; format: functional
MDR1 [28] = assay: Permeability from apical to basolateral side in MDCK cells transfected with MDR1; format: ADME, cell-based, Canis lupus familiaris; conditions: dog, read-out: permeability
[29] = biological target: T9, Alpha-1A adrenergic receptor (Homo sapiens, UniProt P35348)
T9 sequence (P35348 whole entry): T6 sequence (whole entry)

[30] = Selectivity ratio of Ki for rat recombinant dopamine D2 short receptor to Ki for human recombinant full length 5HT2A receptor
Rattus norvegicus [31] = assay: Inhibition of conditioned avoidance response in Sprague-Dawley rat model at 2 mg/kg, po after 2 hrs by electric foot shock test; format: functional, organism-based; parameters: dose 2 mg/kg

## CN1CCN2c3c(cccc31)[C@@H]1CN(CCCC(=O)N3CCC(F)(F)CC3)CC[C@@H]12
[1]
  Ki: > 1000 nM
[2]
  inhibition: 3%
D(2) dopamine receptor
  Ki: > 1000 nM
[3]
  Ki: > 1000 nM

## CN1CCN2c3c(cccc31)[C@@H]1CN(CCCC(=O)c3ccc(F)cc3)CC[C@@H]12.Cc1ccc(S(=O)(=O)O)cc1 [LUMATEPERONE TOSYLATE]
[4]
  fraction unbound: 0.026
[5]
  Ki: 31 nM
[6]
  logD: 3.38
[7]
  logD: 0.55
Homo sapiens [8]
  Activity: Non-toxic
[9]
  inhibition: > 50%
[10]
  Activity: 0%
[11]
  inhibition: > 50%
Homo sapiens [12]
  Activity: Non-toxic
[13]
  Ki: 1480 nM
Histamine H1 receptor
  Ki: > 1000 nM
Homo sapiens [14]
  Activity: Active
[15]
  inhibition: > 50%
MDR1 [16]
  efflux ratio: 1.3
Homo sapiens [17]
  Activity: Active
Homo sapiens [18]
  Activity: Active
[19]
  inhibition: > 50%
Rattus norvegicus [20]
  Activity: Non-toxic
[21]
  inhibition: > 50%
D(4) dopamine receptor
  Ki: 108 nM
Homo sapiens [22]
  Activity: Active
Rattus norvegicus [23]
  Activity: Non-toxic
[24]
  inhibition: 100%
[25]
  solubility: 330 µg/mL
Rattus norvegicus [26]
  ED50: 0.12 mg/kg
Rattus norvegicus [27]
  ED50: 1.5 mg/kg
MDR1 [28]
  Papp A→B: 15.8 ×10⁻⁶ cm/s

## O=C(CCCN1CC[C@H]2[C@@H](C1)c1cccc3c1N2CCO3)c1ccc(F)cc1
[5]
  Ki: 104 nM
[1]
  Ki: 520 nM
[13]
  Ki: 1330 nM
[29]
  Ki: 262 nM
D(2) dopamine receptor
  Ki: 41 nM
[30]
  Ratio Ki: 46
D(4) dopamine receptor
  Ki: 320 nM
Rattus norvegicus [26]
  ED50: 0.25 mg/kg
[3]
  Ki: 0.89 nM

## CN1CCN2c3c(cccc31)[C@@H]1CN(CCCc3noc4ccccc34)CC[C@@H]12
[5]
  Ki: 294 nM
[1]
  Ki: 287 nM
[29]
  Ki: 314 nM
D(2) dopamine receptor
  Ki: 174 nM
[30]
  Ratio Ki: 53
Rattus norvegicus [26]
  ED50: 1 mg/kg
[3]
  Ki: 3.3 nM

## O=C(CCCN1CCC(O)(c2ccc(Cl)cc2)CC1)c1ccc(F)cc1 [HALOPERIDOL]
Rattus norvegicus [31]
  Activity: Active
Rattus norvegicus [23]
  Activity: Toxic
